From the NIST ThermoML archive (doi:10.1016/j.jct.2012.04.007)

Assays:
[1] = 101.33 kPa, Liquid, Vibrating tube method
[2] = xn = mol fraction of the nth substance listed; settings: 101 kPa, Liquid, Vibrating tube method

CC(=O)N(C)C [N,N-dimethylethanamide]
[1]
Settings	mass density [kg/m3]
278.15 K	954.78
288.15 K	945.591
298.15 K	936.382
308.15 K	927.142
318.15 K	917.863

CC(=O)N(C)C [N,N-dimethylethanamide] + O
mass density [kg/m3], [2]
Settings	278.15 K	288.15 K	298.15 K	308.15 K	318.15 K
x2 = 0.0002901	954.8	945.61	936.4	927.16	917.88
x2 = 0.001042	954.84	945.65	936.44	927.2	917.92
x2 = 0.001656	954.87	945.68	936.47	927.23	917.95
x2 = 0.002777	954.93	945.74	936.53	927.28	918
x2 = 0.003783	954.99	945.8	936.58	927.34	918.05
x2 = 0.004833	955.05	945.85	936.64	927.39	918.1
x2 = 0.005867	955.1	945.91	936.69	927.44	918.16
x2 = 0.007593	955.19	946	936.78	927.53	918.24
x2 = 0.008945	955.27	946.07	936.85	927.6	918.31
x2 = 0.01063	955.36	946.16	936.94	927.69	918.39
x2 = 0.01192	955.43	946.23	937.01	927.75	918.46

CN(C)C=O [dimethylformamide]
[1]
Settings	mass density [kg/m3]
278.15 K	962.901
288.15 K	953.398
298.15 K	943.869
308.15 K	934.298
318.15 K	924.683

CN(C)C=O [dimethylformamide] + O
mass density [kg/m3], [2]
Settings	278.15 K	288.15 K	298.15 K	308.15 K	318.15 K
x2 = 0.0002028	962.91	953.41	943.88	934.31	924.69
x2 = 0.0008875	962.94	953.44	943.91	934.34	924.72
x2 = 0.001707	962.98	953.48	943.95	934.38	924.76
x2 = 0.002654	963.03	953.53	944	934.42	924.8
x2 = 0.003456	963.06	953.57	944.03	934.46	924.84
x2 = 0.00465	963.12	953.62	944.09	934.52	924.89
x2 = 0.006106	963.19	953.69	944.16	934.58	924.96
x2 = 0.007804	963.28	953.77	944.24	934.66	925.04
x2 = 0.009189	963.34	953.84	944.3	934.73	925.1
x2 = 0.01051	963.4	953.9	944.37	934.79	925.16
x2 = 0.01182	963.47	953.97	944.43	934.85	925.22

[2H]O[2H] [water-d2] + CC(=O)N(C)C
mass density [kg/m3], [2]
Settings	278.15 K	288.15 K	298.15 K	308.15 K	318.15 K
x1 = 0.0002901	954.8	945.61	936.4	927.16	917.88
x1 = 0.0009284	954.85	945.66	936.45	927.21	917.93
x1 = 0.00199	954.93	945.74	936.53	927.29	918
x1 = 0.002684	954.98	945.79	936.58	927.34	918.05
x1 = 0.003434	955.05	945.85	936.64	927.39	918.11
x1 = 0.004789	955.15	945.96	936.74	927.49	918.21
x1 = 0.005915	955.24	946.05	936.83	927.58	918.28
x1 = 0.007384	955.36	946.16	936.94	927.69	918.39
x1 = 0.008715	955.46	946.26	937.04	927.79	918.49
x1 = 0.01024	955.59	946.38	937.16	927.9	918.6
x1 = 0.01198	955.72	946.52	937.29	928.03	918.73

[2H]O[2H] [water-d2] + CN(C)C=O
mass density [kg/m3], [2]
Settings	278.15 K	288.15 K	298.15 K	308.15 K	318.15 K
x1 = 0.0002028	962.92	953.41	943.88	934.31	924.7
x1 = 0.0009641	962.98	953.47	943.94	934.37	924.75
x1 = 0.00191	963.05	953.54	944.01	934.44	924.82
x1 = 0.002862	963.12	953.61	944.08	934.5	924.89
x1 = 0.003812	963.19	953.68	944.15	934.57	924.96
x1 = 0.004846	963.27	953.76	944.23	934.65	925.03
x1 = 0.005839	963.35	953.84	944.3	934.72	925.1
x1 = 0.006984	963.44	953.92	944.39	934.81	925.19
x1 = 0.008587	963.56	954.05	944.51	934.93	925.31
x1 = 0.01049	963.71	954.19	944.65	935.07	925.44
x1 = 0.012	963.83	954.31	944.77	935.18	925.55
